From US20260327191A1, “GSK3a INHIBITORS AND METHODS OF USE THEREOF” (Blueprint Medicines Corporation, priority 2023, published 2026) come the findings set out here.

The target in experiment [1] is T1, GSK3B (Homo sapiens, UniProt P49841). The experiment is described as follows: NanoBRET cellular target engagement assay, Nanoluc-GSK3B in HEK293 cells. It is filed as cell-based. Further details: expressed in transfected cells. Conditions: NanoBRET GSK3β IC50, HEK293 cells, tracer K-8, 2 hours, 37° C. As for the experimental part: (§1) In the assay, HEK293 cells stably expressing either Nanoluc-GSK3A or Nanoluc-GSK3B were maintained in culture media and seeded, using a multidrop dispenser, at a density of 5×10^3 cells per well in 384-well white plates with 100 ng/ml doxycycline (Sigma) overnight.
T1 sequence (P49841 whole entry): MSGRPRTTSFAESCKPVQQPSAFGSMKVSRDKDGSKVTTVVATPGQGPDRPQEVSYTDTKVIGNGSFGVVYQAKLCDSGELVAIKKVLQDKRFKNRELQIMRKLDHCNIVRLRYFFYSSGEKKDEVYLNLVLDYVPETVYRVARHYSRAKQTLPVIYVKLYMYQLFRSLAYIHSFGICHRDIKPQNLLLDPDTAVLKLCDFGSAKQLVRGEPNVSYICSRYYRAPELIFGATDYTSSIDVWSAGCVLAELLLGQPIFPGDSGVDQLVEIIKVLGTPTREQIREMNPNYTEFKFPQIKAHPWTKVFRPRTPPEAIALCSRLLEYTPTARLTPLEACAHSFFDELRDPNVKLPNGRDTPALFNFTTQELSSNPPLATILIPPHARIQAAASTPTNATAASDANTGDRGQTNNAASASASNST
(§2) Compound was first diluted in DMSO to generate a 9-point serial dilution then diluted to 10× final concentration in Opti-MEM™ (Gibco). After overnight incubation, cell medium was aspirated from the seeded cells using a microplate automatic washer, then 27 μL of pre-warmed Opti-MEM™ with kinase tracer (K-8) and 3 μL of Opti-MEM™ diluted DMSO or compounds were added per well. Plates were protected from light, mixed in an orbital shaker for 3 min at RT and incubated at 37° C., 5% CO2 in a humidified incubator for 2 hours. After acclimation at RT for 15 min, 15 μL of 3× complete NanoBRET™ Nano-Glo Substrate/Inhibitor (Promega) was added per well. Plates were mixed in an orbital shaker for 3 min at RT and incubated for an additional 30 min. Donor emission at 460 nm and acceptor emission at 647 nm were measured in EnVision multilabel plate reader (Perkin Elmer).

Experiment [2] addresses T1, GSK3B. Put plainly: In vitro enzymatic activity assay, GSK3β. To be noted: 1.0 mM ATP, 1.0 μM peptide substrate, 120 min, 25° C, read-out: Enzyme GSK3β (IC50). Type of experiment: biochemical. The arrangement: Full length human GSK3α or GSK3B expressed as N-terminal GST fusion proteins; GST (N); purchased Carna Biosciences (Japan); host or cells: baculovirus host. As for the experimental part: (§3) Full length human GSK3α or GSK3B expressed as N-terminal GST fusion proteins in baculovirus host were purchased from Carna Biosciences (Japan). The kinase was pre-incubated with ATP (adenosine-5′-triphosphate) for 45 min, then incubated with tested compounds for another 45 min in assay buffer that contains 100 mM HEPES (N-2-hydroxyethylpiperazine-N′-2-ethanesulfonic acid), pH 7.5, 10 mM MgCl2, 1.0 mM DTT, and 0.015% Briji-35. […] Percent inhibition was plotted against compound concentration to generate 10-point dose response curve with 3-fold serial dilution starting from 10 μM. IC50 value was determined from the 4-parameter logistic curve fitting.

The target of the next experiment is T2, human GSK3α (Homo sapiens, UniProt P49840).
T2 construct: Full length human GSK3α or GSK3B expressed as N-terminal GST fusion proteins; GST (N); purchased Carna Biosciences (Japan); host or cells: baculovirus host
T2 sequence (P49840 whole entry, the tested form may be a part): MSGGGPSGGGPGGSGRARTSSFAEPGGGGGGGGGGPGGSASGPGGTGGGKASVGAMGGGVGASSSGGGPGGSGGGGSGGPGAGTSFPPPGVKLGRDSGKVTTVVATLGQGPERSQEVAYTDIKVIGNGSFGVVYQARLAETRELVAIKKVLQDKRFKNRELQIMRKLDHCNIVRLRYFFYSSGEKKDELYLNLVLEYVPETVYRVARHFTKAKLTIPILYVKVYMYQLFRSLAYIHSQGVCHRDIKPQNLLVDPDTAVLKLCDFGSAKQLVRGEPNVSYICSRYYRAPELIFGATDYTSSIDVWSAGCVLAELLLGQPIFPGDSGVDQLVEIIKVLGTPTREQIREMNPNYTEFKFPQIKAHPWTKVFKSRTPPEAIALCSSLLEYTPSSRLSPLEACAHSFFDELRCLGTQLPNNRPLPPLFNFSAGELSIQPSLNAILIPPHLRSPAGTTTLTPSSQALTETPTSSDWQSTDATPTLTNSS
Put plainly: In vitro enzymatic activity assay, GSK3α. Conditions: 1.0 mM ATP, 1.0 μM peptide substrate, 120 min, 25° C, read-out: Enzyme GSK3α (IC50). It is filed as biochemical. As for the experimental part: as §3

The target in a further experiment is T3, GSK3A (Homo sapiens, UniProt P49840).
T3 construct: expressed in transfected cells
T3 sequence (P49840 whole entry): as the sequence (P49840 whole entry, the tested form may be a part) above
The experiment is described as follows: NanoBRET cellular target engagement assay, Nanoluc-GSK3A in HEK293 cells. Type of experiment: cell-based. To be noted: NanoBRET GSK3α IC50, HEK293 cells, tracer K-8, 2 hours, 37° C. As for the experimental part:
as §1, §2
A general note: BRET reads energy transfer from a luciferase to a nearby fluorophore.

Regarding `C#CCC(N)c1cncc(NC(=O)c2c(N)ncn(-c3c(Cl)cc(OCC)cc3Cl)c2=O)c1` (single isomer, unassigned) [Example 150, (R)-4-amino-N-(5-(1-aminobut-3-yn-1-yl)pyridin-3-yl)-1-(2,6-dichloro-4-ethoxyphenyl)-6-oxo-1,6-dihydropyrimidine-5-carboxamide or (S)-4-amino-N-(5-(1-aminobut-3-yn-1-yl)pyridin-3-yl)-1-(2,6-dichloro-4-ethoxyphenyl)-6-oxo-1,6-dihydropyrimidine-5-carboxamide], the IC50 – broadly, the concentration needed to halve the response being measured – against GSK3B [1] came to 49.5 nM; on GSK3B [2], 44.2 nM; on human GSK3α, 1.1 nM; against GSK3A it was 1 nM.

Take `CC1CCC(c2cccc(NC(=O)c3c(N)ncn(-c4c(Cl)cccc4Cl)c3=O)c2)N1` (single isomer, unassigned) [Example 180, 4-amino-1-(2,6-dichlorophenyl)-N-(3-((2R,5R)-5-methylpyrrolidin-2-yl)phenyl)-6-oxo-1,6-dihydropyrimidine-5-carboxamide or 4-amino-1-(2,6-dichlorophenyl)-N-(3-((2S,5S)-5-methylpyrrolidin-2-yl)phenyl)-6-oxo-1,6-dihydropyrimidine-5-carboxamide]: the IC50 was determined as 322 nM against GSK3B [1], 298 nM on GSK3B [2], 6.4 nM at human GSK3α and 4.7 nM on GSK3A.

As for `Cc1cc(C(F)CF)cc(C)c1-n1cnc(N)c(C(=O)Nc2cncc([C@H]3CCCCN3)c2)c1=O` (single isomer, unassigned) [Example 111, 4-amino-1-(4-((R)-1,2-difluoroethyl)-2,6-dimethylphenyl)-6-oxo-N-(5-((R)-piperidin-2-yl)pyridin-3-yl)-1,6-dihydropyrimidine-5-carboxamide or 4-amino-1-(4-((S)-1,2-difluoroethyl)-2,6-dimethylphenyl)-6-oxo-N-(5-((R)-piperidin-2-yl)pyridin-3-yl)-1,6-dihydropyrimidine-5-carboxamide], the IC50 at human GSK3α turned out to be 3 nM; against GSK3A, 2 nM.

On to `COc1cc(Cl)c(-n2cnc(N)c(C(=O)Nc3cncc(C4(N)CCOCC4)c3)c2=O)c(Cl)c1` [Example 182, 4-amino-N-(5-(4-aminotetrahydro-2H-pyran-4-yl)pyridin-3-yl)-1-(2,6-dichloro-4-methoxyphenyl)-6-oxo-1,6-dihydropyrimidine-5-carboxamide], for which the IC50 at GSK3B [1] was 643 nM; on GSK3B [2] it was 915 nM; at human GSK3α, 17.4 nM; at GSK3A, 8.2 nM.

With `COc1cc(Cl)c(-n2cnc(N)c(C(=O)Nc3cncc([C@@H]4NC[C@H]5CCC[C@H]54)c3)c2=O)c(Cl)c1` (single isomer, unassigned) [Example 32, 4-amino-1-(2,6-dichloro-4-methoxyphenyl)-N-(5-((1R,3aS,6aR)-octahydrocyclopenta[c]pyrrol-1-yl)pyridin-3-yl)-6-oxo-1,6-dihydropyrimidine-5-carboxamide or 4-amino-1-(2,6-dichloro-4-methoxyphenyl)-N-(5-((1S,3aR,6aS)-octahydrocyclopenta[c]pyrrol-1-yl)pyridin-3-yl)-6-oxo-1,6-dihydropyrimidine-5-carboxamide], the IC50 on GSK3B [1] amounted to 158 nM; at GSK3B [2] it was 269 nM; on human GSK3α it was 6.3 nM; on GSK3A, 2.6 nM.

Turning to `COc1cc(Cl)c(-n2cnc(N)c(C(=O)Nc3cncc(C4(N)CCCC4)c3)c2=O)c(Cl)c1` [Example 21, 4-amino-N-(5-(1-aminocyclopentyl)pyridin-3-yl)-1-(2,6-dichloro-4-methoxyphenyl)-6-oxo-1,6-dihydropyrimidine-5-carboxamide], the IC50 on GSK3B [1] amounted to 145 nM; at GSK3B [2], 217 nM; on human GSK3α, 3.2 nM; on GSK3A, 2.6 nM.

`Nc1ncn(-c2c(Cl)cc(N3CCC3)cc2Cl)c(=O)c1C(=O)Nc1cncc([C@@H]2CCCCN2)c1` [Example 209, (S)-4-amino-1-(4-(azetidin-1-yl)-2,6-dichlorophenyl)-6-oxo-N-(5-(piperidin-2-yl)pyridin-3-yl)-1,6-dihydropyrimidine-5-carboxamide]: the half-maximal inhibitory concentration (IC50) on GSK3B [1] was found to be 300 nM; at GSK3B [2], 383 nM; on human GSK3α it was 5.2 nM; at GSK3A it was 5.9 nM.

Turning to `CCOc1c(CN)cccc1NC(=O)c1c(N)ncn(-c2c(Cl)cccc2Cl)c1=O` [Example 220, 4-amino-N-(3-(aminomethyl)-2-ethoxyphenyl)-1-(2,6-dichlorophenyl)-6-oxo-1,6-dihydropyrimidine-5-carboxamide], the IC50 at GSK3B [1] is 259 nM; at GSK3B [2], 308 nM; at human GSK3α it was 11.7 nM; on GSK3A, 8.1 nM.

Take `COCc1cc(C)c(-n2cnc(N)c(C(=O)Nc3cncc(C4CNC(=O)CN4)c3)c2=O)c(C)c1` (single isomer, unassigned) [Example 160, (R)-4-amino-1-(4-(methoxymethyl)-2,6-dimethylphenyl)-6-oxo-N-(5-(5-oxopiperazin-2-yl)pyridin-3-yl)-1,6-dihydropyrimidine-5-carboxamide or (S)-4-amino-1-(4-(methoxymethyl)-2,6-dimethylphenyl)-6-oxo-N-(5-(5-oxopiperazin-2-yl)pyridin-3-yl)-1,6-dihydropyrimidine-5-carboxamide]: the IC50 is 11300 nM against GSK3B [1], 2320 nM at GSK3B [2], 161 nM on human GSK3α and 197 nM against GSK3A.

Consider `CCCOc1cc(C)c(-n2cnc(N)c(C(=O)Nc3cncc(CNC)c3)c2=O)c(C)c1` [Example 127, 4-amino-1-(2,6-dimethyl-4-propoxyphenyl)-N-(5-((methylamino)methyl)pyridin-3-yl)-6-oxo-1,6-dihydropyrimidine-5-carboxamide], for which the concentration for half-maximal inhibition (IC50) against GSK3B [1] worked out at 650 nM; on GSK3B [2], 767 nM; on human GSK3α it was 18.6 nM; against GSK3A, 9.6 nM.

On to `COc1cc(Cl)c(-n2cnc(N)c(C(=O)Nc3cncc([C@@H](C)N)c3)c2=O)c(Cl)c1` (single isomer, unassigned) [Example 74, (R)-4-amino-N-(5-(1-aminoethyl)pyridin-3-yl)-1-(2,6-dichloro-4-methoxyphenyl)-6-oxo-1,6-dihydropyrimidine-5-carboxamide or (S)-4-amino-N-(5-(1-aminoethyl)pyridin-3-yl)-1-(2,6-dichloro-4-methoxyphenyl)-6-oxo-1,6-dihydropyrimidine-5-carboxamide], for which the IC50 at GSK3B [1] was determined as 363 nM; at GSK3B [2], 465 nM; on human GSK3α it was 9.6 nM; on GSK3A, 6.6 nM.

On to `COC[C@@H](N)c1cncc(NC(=O)c2c(N)ncn(-c3c(Cl)cc(OC)cc3Cl)c2=O)c1` [Example 77, (S)-4-amino-N-(5-(1-amino-2-methoxyethyl)pyridin-3-yl)-1-(2,6-dichloro-4-methoxyphenyl)-6-oxo-1,6-dihydropyrimidine-5-carboxamide], for which the IC50 turned out to be 196 nM at GSK3B [1], 152 nM on GSK3B [2], 2.2 nM at human GSK3α and 3.5 nM against GSK3A.

Take `Cc1cc([C@@H](C)F)cc(C)c1-n1cnc(N)c(C(=O)Nc2cncc([C@H]3CCCCN3)c2)c1=O` (single isomer, unassigned) [Example 185, 4-amino-1-(4-((R)-1-fluoroethyl)-2,6-dimethylphenyl)-6-oxo-N-(5-((R)-piperidin-2-yl)pyridin-3-yl)-1,6-dihydropyrimidine-5-carboxamide or 4-amino-1-(4-((S)-1-fluoroethyl)-2,6-dimethylphenyl)-6-oxo-N-(5-((R)-piperidin-2-yl)pyridin-3-yl)-1,6-dihydropyrimidine-5-carboxamide]: the concentration for half-maximal inhibition (IC50) at GSK3B [1] amounted to 128 nM; at GSK3B [2] it was 148 nM; on human GSK3α, 3.5 nM; against GSK3A, 1.6 nM.

As for `CCNCc1cncc(NC(=O)c2c(N)ncn(-c3c(Cl)cc(CC(F)F)cc3Cl)c2=O)c1` [Example 203, 4-amino-1-(2,6-dichloro-4-(2,2-difluoroethyl)phenyl)-N-(5-((ethylamino)methyl)pyridin-3-yl)-6-oxo-1,6-dihydropyrimidine-5-carboxamide], the half-inhibitory concentration (IC50) against GSK3B [1] came out at 293 nM; at GSK3B [2] it was 318 nM; on human GSK3α, 8 nM; on GSK3A, 3.7 nM.
